# In patent publication US10952433B2, “Solutions for enhancing the effectiveness of insecticides and fungicides on living plants and related methods” (priority 2015, dated 2021):
# Read-outs that look alike come from different tables or passages of the source.
# Columns and labels:
# [1] = tested on: lepidopteran larvae: cabbage loopers (Trichoplusia ni) and beet armyworms (Spodoptera exigua); assay type: in vivo; details: plants
# How it was run: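 Romaine lettuce plants 2-3 inches tall were sprayed with 10 mL of insecticide (ppm) with buffer, amine oxide or buffered amine oxide at 200:1, then infested with 15 T. ni and 15 S. exigua larvae (5th-6th instar) per container. Leaf surface damage scored visually in 5% increments after 24 h.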
# [2] = tested on: lepidopteran larvae: cabbage loopers (Trichoplusia ni) and beet armyworms (Spodoptera exigua); assay type: in vivo; details: leaf discs
# How it was run: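 Romaine lettuce leaf discs (⅝ inch) dipped about one second in treatment solution and infested with four cabbage loopers and four beet armyworms (3rd-4th instar) per container. Held dark at 15 °C, 80% RH; percent disc-area damage scored visually in 5% increments at 24, 48 and 72 h.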
# [3] = insecticide + CO3 buffer 200:1, no amine oxide, PPM: Chlorantranilopril 60, Acephate 70, Methoxyfenozide 100, Spinosad 30, Permethrin 10, Indoxacarb 50
# [4] = insecticide + PO4 buffer 200:1, no amine oxide, PPM: Chlorantranilopril 60, Acephate 70, Methoxyfenozide 100, Spinosad 30, Permethrin 10, Indoxacarb 50
# [5] = insecticide + amine oxide 12, no buffer, 200:1, PPM: Chlorantranilopril 60, Acephate 70, Methoxyfenozide 100, Spinosad 30, Permethrin 10, Indoxacarb 50
# [6] = insecticide + amine oxide 1218, no buffer, 200:1, PPM: Chlorantranilopril 60, Acephate 70, Methoxyfenozide 100, Spinosad 30, Permethrin 10, Indoxacarb 50
# [7] = insecticide + buffered amine oxide system CO3, 12, 200:1, PPM: Chlorantranilopril 60, Acephate 70, Methoxyfenozide 100, Spinosad 30, Permethrin 10, Indoxacarb 50
# [8] = insecticide + buffered amine oxide system CO3, 1218, 200:1, PPM: Chlorantranilopril 60, Acephate 70, Methoxyfenozide 100, Spinosad 30, Permethrin 10, Indoxacarb 50
# [9] = insecticide + buffered amine oxide system PO4, 12, 200:1, PPM: Chlorantranilopril 60, Acephate 70, Methoxyfenozide 100, Spinosad 30, Permethrin 10, Indoxacarb 50
# [10] = insecticide + buffered amine oxide system PO4, 1218, 200:1, PPM: Chlorantranilopril 60, Acephate 70, Methoxyfenozide 100, Spinosad 30, Permethrin 10, Indoxacarb 50
# [11] = insecticide alone, highest, PPM: Chlorantranilopril 120, Acephate 140, Methoxyfenozide 200, Spinosad 60, Permethrin 20, Indoxacarb 100
# [12] = insecticide alone, increased, PPM: Chlorantranilopril 90, Acephate 105, Methoxyfenozide 150, Spinosad 45, Permethrin 15, Indoxacarb 75
# [13] = insecticide alone, PPM: Chlorantranilopril 60, Acephate 70, Methoxyfenozide 100, Spinosad 30, Permethrin 10, Indoxacarb 50
molecule,measurement,setting,value
CNC(=O)c1cc(Cl)cc(C)c1NC(=O)c1cc(Br)nn1-c1ncccc1Cl [Chlorantranilopril],Percent Lepidopteran Damage to Romaine Lettuce 24 hr,[1]; [3],13.5%
same,Percent Lepidopteran Damage to Romaine Lettuce 24 hr,[1]; [4],9.0%
same,Percent Lepidopteran Damage to Romaine Lettuce 24 hr,[1]; [5],9.0%
same,Percent Lepidopteran Damage to Romaine Lettuce 24 hr,[1]; [6],5.5%
same,Percent Lepidopteran Damage to Romaine Lettuce 24 hr,[1]; [7],2.5%
same,Percent Lepidopteran Damage to Romaine Lettuce 24 hr,[1]; [8],2.5%
same,Percent Lepidopteran Damage to Romaine Lettuce 24 hr,[1]; [9],4.0%
same,Percent Lepidopteran Damage to Romaine Lettuce 24 hr,[1]; [10],0.0%
same,Percent Lepidopteran Damage to Romaine Lettuce 24 hr,[1]; [11],8.5%
same,Percent Lepidopteran Damage to Romaine Lettuce 24 hr,[1]; [12],8.2%
same,Percent Lepidopteran Damage to Romaine Lettuce 24 hr,[1]; [13],10.5%
same,Percent Lepidopteran Damage to Romaine Lettuce 24 hr,[2]; [3],13.0%
same,Percent Lepidopteran Damage to Romaine Lettuce 24 hr,[2]; [4],14.0%
same,Percent Lepidopteran Damage to Romaine Lettuce 24 hr,[2]; [5],4.5%
same,Percent Lepidopteran Damage to Romaine Lettuce 24 hr,[2]; [6],10.5%
same,Percent Lepidopteran Damage to Romaine Lettuce 24 hr,[2]; [7],3.0%
same,Percent Lepidopteran Damage to Romaine Lettuce 24 hr,[2]; [8],1.0%
same,Percent Lepidopteran Damage to Romaine Lettuce 24 hr,[2]; [9],4.5%
same,Percent Lepidopteran Damage to Romaine Lettuce 24 hr,[2]; [10],6.5%
same,Percent Lepidopteran Damage to Romaine Lettuce 24 hr,[2]; [11],9.5%
same,Percent Lepidopteran Damage to Romaine Lettuce 24 hr,[2]; [12],7.5%
same,Percent Lepidopteran Damage to Romaine Lettuce 24 hr,[2]; [13],4.5%
same,Percent Lepidopteran Damage to Romaine Lettuce 48 hr,[2]; [3],17.5%
same,Percent Lepidopteran Damage to Romaine Lettuce 48 hr,[2]; [4],22.5%
same,Percent Lepidopteran Damage to Romaine Lettuce 48 hr,[2]; [5],8.0%
same,Percent Lepidopteran Damage to Romaine Lettuce 48 hr,[2]; [6],17.5%
same,Percent Lepidopteran Damage to Romaine Lettuce 48 hr,[2]; [7],5.0%
same,Percent Lepidopteran Damage to Romaine Lettuce 48 hr,[2]; [8],2.0%
same,Percent Lepidopteran Damage to Romaine Lettuce 48 hr,[2]; [9],12.5%
same,Percent Lepidopteran Damage to Romaine Lettuce 48 hr,[2]; [10],12.5%
same,Percent Lepidopteran Damage to Romaine Lettuce 48 hr,[2]; [11],17.5%
same,Percent Lepidopteran Damage to Romaine Lettuce 48 hr,[2]; [12],14.0%
same,Percent Lepidopteran Damage to Romaine Lettuce 48 hr,[2]; [13],9.0%
same,Percent Lepidopteran Damage to Romaine Lettuce 72 hr,[2]; [3],19.5%
same,Percent Lepidopteran Damage to Romaine Lettuce 72 hr,[2]; [4],24.5%
same,Percent Lepidopteran Damage to Romaine Lettuce 72 hr,[2]; [5],8.5%
same,Percent Lepidopteran Damage to Romaine Lettuce 72 hr,[2]; [6],18.5%
same,Percent Lepidopteran Damage to Romaine Lettuce 72 hr,[2]; [7],5.0%
same,Percent Lepidopteran Damage to Romaine Lettuce 72 hr,[2]; [8],2.0%
same,Percent Lepidopteran Damage to Romaine Lettuce 72 hr,[2]; [9],13.0%
same,Percent Lepidopteran Damage to Romaine Lettuce 72 hr,[2]; [10],12.5%
same,Percent Lepidopteran Damage to Romaine Lettuce 72 hr,[2]; [11],17.5%
same,Percent Lepidopteran Damage to Romaine Lettuce 72 hr,[2]; [12],15.0%
same,Percent Lepidopteran Damage to Romaine Lettuce 72 hr,[2]; [13],9.0%
Spinosad,Percent Lepidopteran Damage to Romaine Lettuce 24 hr,[1]; [3],17.0%
same,Percent Lepidopteran Damage to Romaine Lettuce 24 hr,[1]; [4],20.5%
same,Percent Lepidopteran Damage to Romaine Lettuce 24 hr,[1]; [5],24.5%
same,Percent Lepidopteran Damage to Romaine Lettuce 24 hr,[1]; [6],22.5%
same,Percent Lepidopteran Damage to Romaine Lettuce 24 hr,[1]; [7],12.5%
same,Percent Lepidopteran Damage to Romaine Lettuce 24 hr,[1]; [8],9.5%
same,Percent Lepidopteran Damage to Romaine Lettuce 24 hr,[1]; [9],10.0%
same,Percent Lepidopteran Damage to Romaine Lettuce 24 hr,[1]; [10],6.5%
same,Percent Lepidopteran Damage to Romaine Lettuce 24 hr,[1]; [11],19.0%
same,Percent Lepidopteran Damage to Romaine Lettuce 24 hr,[1]; [12],17.0%
same,Percent Lepidopteran Damage to Romaine Lettuce 24 hr,[1]; [13],28.5%
same,Percent Lepidopteran Damage to Romaine Lettuce 24 hr,[2]; [3],25.5%
same,Percent Lepidopteran Damage to Romaine Lettuce 24 hr,[2]; [4],20.0%
same,Percent Lepidopteran Damage to Romaine Lettuce 24 hr,[2]; [5],30.5%
same,Percent Lepidopteran Damage to Romaine Lettuce 24 hr,[2]; [6],15.0%
same,Percent Lepidopteran Damage to Romaine Lettuce 24 hr,[2]; [7],14.0%
same,Percent Lepidopteran Damage to Romaine Lettuce 24 hr,[2]; [8],10.5%
same,Percent Lepidopteran Damage to Romaine Lettuce 24 hr,[2]; [9],6.5%
same,Percent Lepidopteran Damage to Romaine Lettuce 24 hr,[2]; [10],13.0%
same,Percent Lepidopteran Damage to Romaine Lettuce 24 hr,[2]; [11],24.5%
same,Percent Lepidopteran Damage to Romaine Lettuce 24 hr,[2]; [12],12.0%
same,Percent Lepidopteran Damage to Romaine Lettuce 24 hr,[2]; [13],19.0%
same,Percent Lepidopteran Damage to Romaine Lettuce 48 hr,[2]; [3],28.0%
same,Percent Lepidopteran Damage to Romaine Lettuce 48 hr,[2]; [4],28.5%
same,Percent Lepidopteran Damage to Romaine Lettuce 48 hr,[2]; [5],35.5%
same,Percent Lepidopteran Damage to Romaine Lettuce 48 hr,[2]; [6],21.0%
same,Percent Lepidopteran Damage to Romaine Lettuce 48 hr,[2]; [7],38.0%
same,Percent Lepidopteran Damage to Romaine Lettuce 48 hr,[2]; [8],29.5%
same,Percent Lepidopteran Damage to Romaine Lettuce 48 hr,[2]; [9],18.5%
same,Percent Lepidopteran Damage to Romaine Lettuce 48 hr,[2]; [10],22.0%
same,Percent Lepidopteran Damage to Romaine Lettuce 48 hr,[2]; [11],34.5%
same,Percent Lepidopteran Damage to Romaine Lettuce 48 hr,[2]; [12],23.5%
same,Percent Lepidopteran Damage to Romaine Lettuce 48 hr,[2]; [13],26.5%
same,Percent Lepidopteran Damage to Romaine Lettuce 72 hr,[2]; [3],29.0%
same,Percent Lepidopteran Damage to Romaine Lettuce 72 hr,[2]; [4],33.0%
same,Percent Lepidopteran Damage to Romaine Lettuce 72 hr,[2]; [5],36.0%
same,Percent Lepidopteran Damage to Romaine Lettuce 72 hr,[2]; [6],28.0%
same,Percent Lepidopteran Damage to Romaine Lettuce 72 hr,[2]; [7],49.5%
same,Percent Lepidopteran Damage to Romaine Lettuce 72 hr,[2]; [8],35.5%
same,Percent Lepidopteran Damage to Romaine Lettuce 72 hr,[2]; [9],24.0%
same,Percent Lepidopteran Damage to Romaine Lettuce 72 hr,[2]; [10],29.5%
same,Percent Lepidopteran Damage to Romaine Lettuce 72 hr,[2]; [11],36.5%
same,Percent Lepidopteran Damage to Romaine Lettuce 72 hr,[2]; [12],36.0%
same,Percent Lepidopteran Damage to Romaine Lettuce 72 hr,[2]; [13],59.0%
